The text below walks through data of patent US20210183467A1, “SYSTEM AND METHOD FOR USING MICROBIOME TO DE-RISK DRUG DEVELOPMENT” (YALE UNIVERSITY, priority 2018, published 2021).

Molecules are shown by their SMILES.

Data set [1] relates to human gut microbiome samples. Put plainly: Combinatorial drug pools incubated with human gut microbiome samples, LC-qTOF MS. It counts as in vitro ADME. Conditions: for metabolism by the human gut microbiome (log2 fold change in amount of drug): 11 individuals randomly selected from the 60 studied, time span of 24 hours. From the text: Beginning with the 1,760 FDA-approved drugs in the MicroSource Pharmakon library, a single UHPLC-qTOF MS method was optimized (C18 column; methanol:water gradient; positive ionization mode) that maximizes the number of detected drugs while minimizing run time. […] These drugs, whose molecular weights vary from ˜155 to ˜800 Da, span a wide range of clinical indications. Many have limited or highly variable bioavailability. Other criteria (specific chemical groups, bioavailability, etc) may be used to select other reference drugs, or drugs may be selected from pre-clinical compound libraries. A computational simulation was performed to determine the number of inputs (drugs) that can be represented in increasing numbers of pools, as a function of changing parameters for replicates and overlap. One such pooling scheme assigns each of 271 drugs to a subset of 21 pools, such that each drug is placed in 4 pools but shares a pool with each other drug at most twice as shown in FIG. 5B. FIG. 5B illustrates combinatorial pooling of 271 drugs indicated in black circles into 21 pools (A-U). Pools V-X are no-drug controls. Other pooling schemes may alter the number of drugs, the number of pools, the number of pools each drug is placed in, or the overlap between the pooling patterns of each drug. […] Each of these pools was incubated with each of 60 human gut microbiome samples and 76 defined bacterial species/strains. Samples were collected over time. Liquid chromatography-coupled quadrupole time-of-flight mass spectrometry (MS) described above was used to quantify drug levels by targeted analysis. For each candidate drug-microbiome interaction, 4 pools provide quadruplicate replication for each drug in 4 distinct contexts of other drugs. The other pools serve as negative controls. In this manner, over 16,000 time-series profiles (271 drugs by 60 communities) were collected, each in quadruplicate, from only 21 drug pools.

The subject of the next data set is BT4554. Put plainly: B. thetaiotaomicron loss-of-function screen, bt4554 deletion and complementation. It counts as in vitro ADME, Bacteroides thetaiotaomicron. To be noted: BT4554 dependence. From the text: Two independent strategies were developed to identify the microbiome-encoded DMEs responsible for these chemical transformations. For members of the Bacteroides (the most prominent genus in the human gut microbiome in the experiments), Proteobacteria, and other genetically tractable species, Insertion Sequencing (INSeq) is used to make mapped, arrayed transposon mutant libraries as described in Goodman 2009 and Goodman 2011. From these libraries, a representative set of mutants was identified that collectively include disruptions in most non-essential genes. Each mutant was incubated with the pool of drugs metabolized by the parent species. Genes required for drug metabolism by LC-MS were identified as above.
1,352 B. thetaiotaomicron mutants were selected from an arrayed library as described in Goodman 2009 that disrupt ˜70% of its non-essential genes. Each mutant was incubated with a pool of 30 drugs metabolized by this organism. Drug levels were measured over time as above. […] FIGS. 10A-C show two examples: one of these is brivudine, an antiviral whose primary metabolite (bromovinyluracil; BVU) is dangerously toxic for patients taking 5-fluorouracil, a principal therapy for colorectal cancer. With reference to FIGS. 10A-C, transposon mutants representing disruptions in 70% of B. thetaiotaomicron (Bt) non-essential genes were screened for metabolism of 30 drugs targeted by the parent strain.
The contribution of microbial drug metabolism to serum drug and metabolite exposure was directly quantified by specifically modulating this activity in otherwise identical mice. To this end, the capacity of ten individual bacterial species was first determined, representing five major phyla that dominate the mammalian gut microbiota, for their capacity to convert BRV to BVU as illustrated in FIG. 14A. […]
Frozen stocks are re-suspended in 4 mL pre-reduced GMM and incubated anaerobically at 37° C. for 14 h. […] Substrates and reaction product are extracted and quantified by LC-MS as described below. […]

For data set [2] the following is noted: patients taking 5-fluorouracil; before withdrawal from the market; cited from earlier work.
Data set [3] in a line: Liver S9 enzyme assay of conversion to BVU. It counts as in vitro ADME. On the procedure:
Human and murine S9 liver fractions are purchased from Thermo Fisher Scientific (HMS9L and MSMCPL, respectively). Enzyme assays are performed for the deglycosylation of arabinosyluracil derivatives. In brief, assays are performed at 37° C. Reaction volumes are 150 μL with liver S9 fractions at 5 μg/μL and BRV or SRV at 100 μM in 10 mM phosphate buffer (pH 7.4). Reactions are initiated by addition of drugs to pre-warmed reaction mixture. 10 μL samples are collected and quenched in 10 μL acetonitrile on ice at 0, 5, 10, 15, 20, 30, 45, 60, 90, 120, 180, 270, and 360 min after initiation. Substrates and reaction product are extracted and quantified by LC-MS as described below.

In data set [4] the test system is 76 defined human gut commensals. It counts as in vitro ADME. Here is the method: Using the combinatorial pooling method described above, each of the 21 drug pools was incubated, plus 3 no-drug control pools, with 76 defined human gut commensals from phyla shown in FIG. 8 grown in pure culture. Over 20,000 time-series profiles were collected, each in quadruplicate, of these specific drug-microbe interactions.

Consider `CC(=O)OCC(CCn1cnc2cnc(N)nc21)COC(C)=O` [Famcyclovir], for which, in data set [1], the “metabolism by the human gut microbiome (log2 fold change in amount of drug)” value is reported as “metabolized by the human gut microbiome”.

For `O=c1[nH]c(=O)n([C@@H]2O[C@H](CO)[C@@H](O)[C@@H]2O)cc1/C=C/Br` [SRV, sorivudine], the “conversion of SRV to BVU by B. thetaiotaomicron” value with BT4554 is “slowly converts SRV to BVU in a BT4554-dependent manner”. Besides, the “patients killed by BVU from the drug” value in data set [2] was 18 patients. For the same compound, the “conversion of SRV to BVU” value in data set [3] (human S9 liver fractions) and in data set [3] (murine S9 liver fractions) was “slowly converted” each time.

On to `CC(=O)OCC(=O)[C@@]12N=C(C)O[C@@H]1C[C@H]1[C@@H]3CCC4=CC(=O)C=C[C@]4(C)[C@H]3[C@@H](O)C[C@@]12C` [deflazacort], for which the “metabolism by individual species” value in data set [4] is listed as “most of the fast metabolizers of this drug are Bacteroides”.

As to `Cc1nc2n(c(=O)c1CCN1CCC(c3noc4cc(F)ccc34)CC1)CCCC2` [risperidone], the “metabolism by the human gut microbiome (log2 fold change in amount of drug)” value in data set [1] was “metabolized by the human gut microbiome”.

In the case of `COc1ccc(/C=C/C(=O)Nc2ccccc2C(=O)O)cc1OC` [tranilast], in data set [1], the “interpersonal variability of metabolism by gut microbiome” value is listed as “one individual that metabolized the drug to a much greater extent than the others” and the “metabolism by the human gut microbiome (log2 fold change in amount of drug)” value is recorded as “metabolized by the human gut microbiome”.
